In ChEMBL document CHEMBL2440076, “New triarylpyrazoles as broad-spectrum anticancer agents: design, synthesis, and biological evaluation” (Eur J Med Chem, 2013):

Assays:
Type in all cases: functional
BT-549 [1] = experiment: Growth inhibition of human BT549 cells assessed as cell growth at 5X10'-6 M after 48 hrs by sulforhodamine B assay; conditions: BT-549, 48 h, read-out: Activity
SF-539 [2] = experiment: Growth inhibition of human SF539 cells assessed as cell growth at 5X10'-5 M after 48 hrs by sulforhodamine B assay; conditions: SF-539, 48 h, read-out: Activity
UACC-62 [3] = experiment: Growth inhibition of human UACC62 cells assessed as cell growth at 5X10'-6 M after 48 hrs by sulforhodamine B assay; conditions: UACC-62, 48 h, read-out: Activity
SF-295 = experiment: Growth inhibition of human SF295 cells assessed as cell growth at 5X10'-6 M after 48 hrs by sulforhodamine B assay; conditions: SF-295, 48 h, read-out: Activity
BT-549 [4] = experiment: Growth inhibition of human BT549 cells assessed as cell growth at 5X10'-8 M after 48 hrs by sulforhodamine B assay; conditions: BT-549, 48 h, read-out: Activity
Malme-3M = experiment: Growth inhibition of human MALME-3M cells assessed as cell growth at 5X10'-9 M after 48 hrs by sulforhodamine B assay; conditions: read-out: Activity
HL-60(TB) [5] = experiment: Growth inhibition of human HL-60(TB) cells assessed as cell growth at 5X10'-8 M after 48 hrs by sulforhodamine B assay; conditions: HL-60, 48 h, read-out: Activity
UACC-62 [6] = experiment: Growth inhibition of human UACC62 cells assessed as cell growth at 3X10'-5 M after 48 hrs by sulforhodamine B assay; conditions: UACC-62, 48 h, read-out: Activity
PC-3 = experiment: Growth inhibition of human PC3 cells assessed as cell growth at 3X10'-8 M after 48 hrs by sulforhodamine B assay; conditions: PC-3, 48 h, read-out: Activity
HL-60(TB) [7] = experiment: Growth inhibition of human HL-60(TB) cells assessed as cell growth at 3X10'-8 M after 48 hrs by sulforhodamine B assay; conditions: HL-60, 48 h, read-out: Activity
SK-MEL-5 [8] = experiment: Growth inhibition of human SK-MEL-5 cells assessed as cell growth at 3X10'-5 M after 48 hrs by sulforhodamine B assay; conditions: SK-MEL-5, 48 h, read-out: Activity
MOLT-4 [9] = experiment: Growth inhibition of human MOLT4 cells assessed as cell growth at 3X10'-8 M after 48 hrs by sulforhodamine B assay; conditions: MOLT-4, 48 h, read-out: Activity
ACHN = experiment: Growth inhibition of human ACHN cells assessed as cell growth at 3X10'-7 M after 48 hrs by sulforhodamine B assay; conditions: read-out: Activity
BT-549 [10] = experiment: Growth inhibition of human BT549 cells assessed as cell growth at 3X10'-8 M after 48 hrs by sulforhodamine B assay; conditions: BT-549, 48 h, read-out: Activity
MOLT-4 [11] = experiment: Growth inhibition of human MOLT4 cells assessed as cell growth at 3X10'-5 M after 48 hrs by sulforhodamine B assay; conditions: MOLT-4, 48 h, read-out: Activity
SF-539 [12] = experiment: Growth inhibition of human SF539 cells assessed as cell growth at 3X10'-5 M after 48 hrs by sulforhodamine B assay; conditions: SF-539, 48 h, read-out: Activity
SK-MEL-2 = experiment: Growth inhibition of human SK-MEL-2 cells assessed as cell growth at 3X10'-5 M after 48 hrs by sulforhodamine B assay; conditions: SK-MEL-2, 48 h, read-out: Activity
OVCAR-4 = experiment: Growth inhibition of human OVCAR4 cells assessed as cell growth at 3X10'-8 M after 48 hrs by sulforhodamine B assay; conditions: OVCAR-4, 48 h, read-out: Activity
HOP-92 = experiment: Growth inhibition of human HOP92 cells assessed as cell growth at 3X10'-7 M after 48 hrs by sulforhodamine B assay; conditions: HOP-92, 48 h, read-out: Activity
COLO 205 = experiment: Growth inhibition of human COLO205 cells assessed as cell growth at 3X10'-7 M after 48 hrs by sulforhodamine B assay; conditions: COLO 205, 48 h, read-out: Activity
HCT-15 = experiment: Growth inhibition of human HCT15 cells assessed as cell growth at 3X10'-5 M after 48 hrs by sulforhodamine B assay; conditions: HCT-15, 48 h, read-out: Activity
U-251 = experiment: Growth inhibition of human U251 cells assessed as cell growth at 3X10'-6 M after 48 hrs by sulforhodamine B assay; conditions: U-251, 48 h, read-out: Activity
UACC-257 [13] = experiment: Growth inhibition of human UACC257 cells assessed as cell growth at 3X10'-9 M after 48 hrs by sulforhodamine B assay; conditions: UACC-257, 48 h, read-out: Activity
SR = experiment: Growth inhibition of human SR cells assessed as cell growth at 3X10'-6 M after 48 hrs by sulforhodamine B assay; conditions: read-out: Activity
HOP-62 = experiment: Growth inhibition of human HOP62 cells assessed as cell growth at 3X10'-8 M after 48 hrs by sulforhodamine B assay; conditions: HOP-62, 48 h, read-out: Activity
CAKI-1 = experiment: Growth inhibition of human CAKI-1 cells assessed as cell growth at 3X10'-8 M after 48 hrs by sulforhodamine B assay; conditions: CAKI-1, 48 h, read-out: Activity
MDA-MB-231 = experiment: Growth inhibition of human MDA-MB-231 cells assessed as cell growth at 3X10'-8 M after 48 hrs by sulforhodamine B assay; conditions: MDA-MB-231, 48 h, read-out: Activity
UACC-257 [14] = experiment: Growth inhibition of human UACC257 cells assessed as cell growth at 3X10'-8 M after 48 hrs by sulforhodamine B assay; conditions: UACC-257, 48 h, read-out: Activity
SN12C = experiment: Growth inhibition of human SN12C cells assessed as cell growth at 3X10'-9 M after 48 hrs by sulforhodamine B assay; conditions: read-out: Activity
HT-29 = experiment: Growth inhibition of human HT-29 cells assessed as cell growth at 3X10'-9 M after 48 hrs by sulforhodamine B assay; conditions: HT-29, 48 h, read-out: Activity
OVCAR-5 = experiment: Growth inhibition of human OVCAR5 cells assessed as cell growth at 3X10'-9 M after 48 hrs by sulforhodamine B assay; conditions: OVCAR-5, 48 h, read-out: Activity
DU-145 = experiment: Growth inhibition of human DU145 cells assessed as cell growth at 3X10'-6 M after 48 hrs by sulforhodamine B assay; conditions: DU-145, 48 h, read-out: Activity
SK-MEL-5 [15] = experiment: Growth inhibition of human SK-MEL-5 cells assessed as cell growth at 3X10'-8 M after 48 hrs by sulforhodamine B assay; conditions: SK-MEL-5, 48 h, read-out: Activity
NCI-H226 = experiment: Growth inhibition of human NCI-H226 cells assessed as cell growth at 3X10'-7 M after 48 hrs by sulforhodamine B assay; conditions: NCI-H226, 48 h, read-out: Activity
A549 = experiment: Growth inhibition of human A549/ATCC cells assessed as cell growth at 3X10'-5 M after 48 hrs by sulforhodamine B assay; conditions: A549, 48 h, read-out: Activity
[16] = Growth inhibition of human NCI-ADR-RES cells assessed as cell growth at 3X10'-7 M after 48 hrs by sulforhodamine B assay; conditions: read-out: Activity
A498 = experiment: Growth inhibition of human A498 cells assessed as cell growth at 3X10'-6 M after 48 hrs by sulforhodamine B assay; conditions: A498, 48 h, read-out: Activity

Structure (SMILES)	growth at 5 µM (BT-549 [1]) [%]	growth at 50 µM (SF-539 [2]) [%]	growth at 5 µM (UACC-62 [3]) [%]	growth at 5 µM (SF-295) [%]	growth at 0.05 µM (BT-549 [4]) [%]	growth at 0.005 µM (Malme-3M) [%]	growth at 0.05 µM (HL-60(TB) [5]) [%]	growth at 30 µM (UACC-62 [6]) [%]	growth at 0.03 µM (PC-3) [%]	growth at 0.03 µM (HL-60(TB) [7]) [%]	growth at 30 µM (SK-MEL-5 [8]) [%]	growth at 0.03 µM (MOLT-4 [9]) [%]	growth at 0.3 µM (ACHN) [%]	growth at 0.03 µM (BT-549 [10]) [%]	growth at 30 µM (MOLT-4 [11]) [%]	growth at 30 µM (SF-539 [12]) [%]	growth at 30 µM (SK-MEL-2) [%]	growth at 0.03 µM (OVCAR-4) [%]	growth at 0.3 µM (HOP-92) [%]	growth at 0.3 µM (COLO 205) [%]	also measured
COc1cc(-c2nn(-c3cccc(NC(=O)Nc4ccc(Cl)c(Cl)c4)c3)cc2-c2ccncc2)ccc1Cl	8	-37	-56	-26	104	103	114														
COc1cc(-c2nn(-c3cccc(NC(=O)c4cccc(C(F)(F)F)c4)c3)cc2-c2ccncc2)ccc1Cl	34	-23	27	-24	98	95	92														
O=C(Nc1cccc(-n2cc(-c3ccncc3)c(-c3ccc(Cl)c(O)c3)n2)c1)Nc1ccc(Cl)c(C(F)(F)F)c1								-83	89	116	-97	116	84	106	-32	-37	-76	95	55	101	growth at 30 µM (HCT-15): -2%; growth at 3 µM (U-251): -61%; growth at 0.003 µM (UACC-257 [13]): 97%; growth at 3 µM (SR): -10%; growth at 0.03 µM (HOP-62): 100%; growth at 0.03 µM (CAKI-1): 91%; growth at 0.03 µM (MDA-MB-231): 96%; growth at 0.03 µM (UACC-257 [14]): 94%; growth at 0.003 µM (SN12C): 95%; growth at 0.003 µM (HT-29): 97%; growth at 0.003 µM (OVCAR-5): 93%; growth at 3 µM (DU-145): 10%; growth at 0.03 µM (SK-MEL-5 [15]): 94%; growth at 0.3 µM (NCI-H226): 82%; growth at 30 µM (A549): -29%; growth at 0.3 µM [16]: 90%; growth at 3 µM (A498): 24%
O=C(Nc1cccc(-n2cc(-c3ccncc3)c(-c3ccc(Cl)c(O)c3)n2)c1)Nc1cccc(C(F)(F)F)c1								-67	96	94	-90	96	94	96	8	-43	-32	107	65	109	growth at 30 µM (HCT-15): 6%; growth at 3 µM (U-251): 29%; growth at 0.003 µM (UACC-257 [13]): 96%; growth at 3 µM (SR): 33%; growth at 0.03 µM (HOP-62): 98%; growth at 0.03 µM (CAKI-1): 94%; growth at 0.03 µM (MDA-MB-231): 101%; growth at 0.03 µM (UACC-257 [14]): 100%; growth at 0.003 µM (SN12C): 98%; growth at 0.003 µM (HT-29): 99%; growth at 0.003 µM (OVCAR-5): 95%; growth at 3 µM (DU-145): 33%; growth at 0.03 µM (SK-MEL-5 [15]): 98%; growth at 0.3 µM (NCI-H226): 98%; growth at 30 µM (A549): 11%; growth at 0.3 µM [16]: 98%; growth at 3 µM (A498): 44%
O=C(Nc1cccc(-n2cc(-c3ccncc3)c(-c3ccc(Cl)c(O)c3)n2)c1)c1ccc(N2CCOCC2)c(C(F)(F)F)c1	70	-18	39	13	101	88	117														
COc1cc(-c2nn(-c3cccc(NC(=O)Nc4ccc(Cl)c(C(F)(F)F)c4)c3)cc2-c2ccncc2)ccc1Cl								-73	95	103	-94	106	97	113	-15	-80	-64	96	70	101	growth at 30 µM (HCT-15): -35%; growth at 3 µM (U-251): 7%; growth at 0.003 µM (UACC-257 [13]): 94%; growth at 3 µM (SR): -13%; growth at 0.03 µM (HOP-62): 95%; growth at 0.03 µM (CAKI-1): 94%; growth at 0.03 µM (MDA-MB-231): 92%; growth at 0.03 µM (UACC-257 [14]): 90%; growth at 0.003 µM (SN12C): 95%; growth at 0.003 µM (HT-29): 105%; growth at 0.003 µM (OVCAR-5): 99%; growth at 3 µM (DU-145): 23%; growth at 0.03 µM (SK-MEL-5 [15]): 91%; growth at 0.3 µM (NCI-H226): 85%; growth at 30 µM (A549): -5%; growth at 0.3 µM [16]: 98%; growth at 3 µM (A498): 12%
COc1cc(-c2nn(-c3cccc(NC(=O)c4ccc(Cl)c(C(F)(F)F)c4)c3)cc2-c2ccncc2)ccc1Cl								20	92	113	-51	97	90	96	24	-15	-10	103	73	99	growth at 30 µM (HCT-15): 25%; growth at 3 µM (U-251): 49%; growth at 0.003 µM (UACC-257 [13]): 93%; growth at 3 µM (SR): 5%; growth at 0.03 µM (HOP-62): 96%; growth at 0.03 µM (CAKI-1): 93%; growth at 0.03 µM (MDA-MB-231): 97%; growth at 0.03 µM (UACC-257 [14]): 102%; growth at 0.003 µM (SN12C): 98%; growth at 0.003 µM (HT-29): 90%; growth at 0.003 µM (OVCAR-5): 96%; growth at 3 µM (DU-145): 67%; growth at 0.03 µM (SK-MEL-5 [15]): 97%; growth at 0.3 µM (NCI-H226): 84%; growth at 30 µM (A549): 16%; growth at 0.3 µM [16]: 91%; growth at 3 µM (A498): 47%
O=C(Nc1cccc(-n2cc(-c3ccncc3)c(-c3ccc(Cl)c(O)c3)n2)c1)Nc1cc(C(F)(F)F)cc(C(F)(F)F)c1	-65	-96	-38	-57	111	107	122														
COc1cc(-c2nn(-c3cccc(NC(=O)Nc4cccc(C(F)(F)F)c4)c3)cc2-c2ccncc2)ccc1Cl	-12	-58	-73	-71	96	86	94														
COc1cc(-c2nn(-c3cccc(NC(=O)Nc4cc(C(F)(F)F)cc(C(F)(F)F)c4)c3)cc2-c2ccncc2)ccc1Cl	-27	-78	-66	-71	102	90	98														
